Results reported in patent publication US20220296555A1, “ACYLATED ACTIVE AGENTS AND METHODS OF THEIR USE FOR THE TREATMENT OF METABOLIC DISORDERS AND NONALCOHOLIC FATTY LIVER DISEASE” (Flagship Pioneering Innovations V, Inc., priority 2019, published 2022).

Tests used:
mouse myocyte = test: Mouse myocyte lipolysis assay; format: cell-based; conditions: differentiated myocytes
Protocol: Cells were obtained from ATCC and cultured in Dulbecco's Modified Eagle's medium (DMEM) containing 20% fetal bovine serum and 1% penicillin/streptomycin at 37° C. in an incubator with 5% CO2. Once the cells became confluent, they were seeded into a tissue culture treated 96 well plate. The next day, the medium containing DMEM with 2% equine serum was used to start differentiation. Table 2 lists the tested compounds including those that reduced the release of glycerol (+, ++, or +++). The lipolytic rate of muscle triglycerides is associated with metabolic dysfunction including insulin resistance and liver steatosis. Compounds that lower lipolysis of adipocytes may improve metabolic function including improving insulin sensitivity and reducing liver steatosis, thus improving outcomes in patients with diabetes mellitus (e.g., prediabetes or type II diabetes) obesity, and hyperlipidemia.

[1] = system: differentiated mouse 3T3-L1 cells; test: Mouse adipocyte lipolysis assay (Lipolysis Assay Kit, ZenBio); format: cell-based; conditions: 24 hours post-treatment, 3T3-L1 adipocytes
Protocol: Mouse 3T3-L1 cells were obtained from ATCC and cultured in Dulbecco's Modified Eagle's medium (DMEM) containing 10% newborn calf serum (NCS) and penicillin/streptomycin(P/S) at 37° C. in an incubator with 5% CO2. Once the cells became confluent, they were seeded into a tissue culture treated 96 well plate. Then, differentiation was initiated by using DMEM containing 10% fetal bovine serum, P/S, IBMX, dexamethasone, and insulin. After 14 days of differentiation, cells were treated with compounds of interest. After 24 hours post-treatment, the cell viability was assessed using CellTiter-Glo Luminescent Cell Viability Assay from Promega, and lipolysis was determined using Lipolysis Assay Kit from ZenBio. […] Table 1 lists the compounds that reduced the release of free fatty acids and glycerol (+, ++, or +++). The lipolytic rate of white adipose tissue is associated with metabolic dysfunction including insulin resistance and liver steatosis. Compounds that lower lipolysis of adipocytes may improve metabolic function including improving insulin sensitivity and reducing liver steatosis, thus improving outcomes in subjects with diabetes mellitus (e.g., prediabetes or type II diabetes), obesity, and hyperlipidemia.

[2] = Assay 2. Stability in Simulated Intestinal Fluid (SIF); format: in vitro ADME; conditions: SIF pH 6.7 with pancreatin, 1 μM, 37° C.
Protocol: Assay 2. Stability of conjugates in Simulated Intestinal Fluid (SIF). This assay was used to assess the stability of an acylated cinnamic acid in a small intestine.
Phosphate buffer was prepared by dissolving 0.42 g of sodium hydroxide pellets and 3.95 g of monobasic sodium phosphate monohydrate and 6.19 g of sodium chloride in ultrapure water (MilliQ®, Millipore Sigma, Darmstadt, Germany). The pH was adjusted to 6.7 using aq. HCl and aq. NaOH, as necessary, and the solution was diluted with ultrapure water to produce 1 L of the pH 6.7 buffer.
112 mg FaSSIF powder (Biorelevant™, London, UK) was dissolved in 50 mL of the pH 6.7 buffer. 2 to 3 mL of the resulting solution were then added to 500 mg pancreatin (Millipore Sigma, Darmstadt, Germany). The resulting mixture was agitated by finger tapping the vessel containing the mixture until milky suspension formed. At this time, the remainder of the 50 mL FaSSiF/pH 6.7 buffer solution was added. The resulting suspension was flipped upside down 10 times to produce SIF, which was used fresh.
A test compound was dissolved in DMSO stock to 1 mM. An aliquot of the DMSO stock solution was removed and diluted in the SIF media in 15 mL falcon tubes to produce a mixture with a tested compound concentration of 1 μM. […] The resulting samples were analyzed by LC/MS to determine degradation rates

[3] = Assay 1. Stability in Simulated Gastric Fluid (SGF); format: in vitro ADME; conditions: SGF pH 1.6 with pepsin, 1 μM, 37° C.
Protocol: Assay 1. Stability of conjugates in Simulated Gastric Fluid (SGF). This assay was used to assess the stability of an acylated cinnamic acid in a stomach.
Medium was prepared by dissolving 2 g of sodium chloride in 0.6 L in ultrapure water (MilliQ®, Millipore Sigma, Darmstadt, Germany). The pH was adjusted to 1.6 with 1N hydrochloric acid, and the volume was then adjusted to 1 L with purified water.
60 mg FaSSIF powder (Biorelevant™, London, UK) were dissolved in 500 mL buffer (above). Pepsin was added (0.1 mg/mL) (Millipore Sigma, Darmstadt, Germany), and the solution was stirred. The resulting SGF media were used fresh for each experiment.
A test compound was dissolved in DMSO stock to 1 mM. An aliquot of the DMSO stock solution was removed and diluted in the SGF Media in 15 mL falcon tubes to generate a total compound concentration of 1 μM. A 1 mL aliquot was immediately removed and diluted once with 1 volume of acetonitrile for T0 timepoint. The mixture was sealed and mixed at 37° C. in an incubator. Aliquots (1 mL) were removed at regular intervals and immediately quenched by the addition of 1 volume of acetonitrile. The resulting samples were analyzed by LC/MS to determine degradation rates in SGF.

[4] = Assay 3. In vitro Colonic Material Stability Assay; format: in vitro ADME; conditions: colonic material slurry, anaerobic, 1 or 10 μM
Protocol: Assay 3. In vitro Colonic Material Stability Assay. This assay was used to assess the stability of an acylated cinnamic acid in a large intestine. All experiments were performed in an anaerobic chamber containing 90% nitrogen, 5% hydrogen and 5% carbon dioxide. Colonic material was resuspended as a slurry (15% w/v final concentration) in pre-reduced, anaerobically sterilized dilution blanks (Anaerobe Systems AS-908). The colonic material was then inoculated into 96 well plates containing YCFAC media (Anaerobe Systems AS-680) or other suitable media (6.7 μL slurry into 1 mL total media). A test compound was added to an individual well to reach a final analyte concentration of 1 or 10 μM, and the material was mixed by pipetting. Sample was removed after set timepoints (0, 120, 240, 480, 1440, 2880 minutes after initiation of the assay), quenched with acetonitrile containing internal standard, and analyzed by LC/MS.

C57BL/6 mice = test: In vivo evaluation in mice fed a high-fat diet (84-day study); parameters: species or system mouse
Protocol: Animals were allowed free access to food and drinking water for the entire study. Animals were weighed on a regular basis, and food and drinking water consumption monitored. Plasma and stool samples were collected at the beginning of the study and 42 days into the study. Additional blood was drawn from fasted mice 58 days into the study. Insulin tolerance tests were performed 72 or 73 days into the study. Following an approximate 4 h fast, 0.5 Units/kg insulin was administered intraperitoneally. Blood was collected pre-insulin challenge (t=0) and at t=15, 30, 60, 90, and 120 min following insulin challenge. Oral glucose tolerance tests were performed 79 or 80 days into the study. Following an approximate 4 h fast, 2 g/kg glucose was administered by oral gavage. Blood was collected pre-insulin challenge (t=0) and at t=15, 30, 60, 90, and 120 min following glucose challenge. At the end of the study, body weight, food consumption, blood glucose, serum ALT levels, serum AST levels, serum cholesterol (total cholesterol. HDL, and LDL levels), serum triglycerides levels, liver triglyceride levels, liver cholesterol levels, liver weight, subcutaneous fat pad weight, and epididymal fat pad weight were measured in all mice.

CC(=O)O [Acetic acid]
Free glycerol % DMSO (mouse myocyte; 1 mM): = (90% >< 100%: =)
Free glycerol % DMSO (mouse myocyte; 3 mM): = (90% >< 100%: =)
Lipolysis Free Fatty Acids % DMSO ([1]; 1 mM): ++ (50 >≤ 70%: ++)
Lipolysis Glycerol % change ([1]; 1 mM): + (70% >≤90%: +)
Lipolysis Free Fatty Acids % DMSO ([1]; 3 mM): ++ (50 >≤ 70%: ++)
Lipolysis Glycerol % change ([1]; 3 mM): + (70% >≤90%: +)

CCCC(=O)O [Butyric acid]
Free glycerol % DMSO (mouse myocyte; 3 mM): +++ (50%<: +++)
Lipolysis Free Fatty Acids % DMSO ([1]; 3 mM): ++ (50 >≤ 70%: ++)
Lipolysis Glycerol % change ([1]; 3 mM): ++ (50 >≤ 70%: ++)

O=C(O)/C=C/c1ccc(O)c(O)c1 [Caffeic acid]
Free glycerol % DMSO (mouse myocyte; 100 μM): +++ (50%<: +++)
Lipolysis Free Fatty Acids % DMSO ([1]; 100 μM): +++ (50%≤: +++)
Lipolysis Glycerol % change ([1]; 100 μM): +++ (50%≤: +++)

CCC(=O)O [Propionic acid]
Free glycerol % DMSO (mouse myocyte; 3 mM): ++ (50 >< 70%: ++)
Lipolysis Free Fatty Acids % DMSO ([1]; 3 mM): +++ (50%≤: +++)
Lipolysis Glycerol % change ([1]; 3 mM): ++ (50 >≤ 70%: ++)

CC(=O)Oc1ccc(/C=C/C(=O)O)cc1OC(C)=O [compound 3, diacetyl caffeic acid]
Assay 2 (SIF) (% @ Remaining 4 hours) [2]: A (<25% of the tested compound remaining)
Assay 1 (SGF) (% Remaining @ 1 hour) [3]: C (>75% of the tested compound remaining)
Assay 3 (% Remaining at 24 h) [4]: A (<25% of the tested compound remaining)

CC(=O)O[C@@H]1OC[C@@H](OC(C)=O)[C@H](OC(C)=O)[C@H]1OC(C)=O [compound 4]
metabolic markers (e.g., glucose tolerance, insulin tolerance, cholesterol levels) (C57BL/6 mice; mice fed high-fat diet + test article): improve metabolic markers
weight loss (C57BL/6 mice; mice fed high-fat diet, over the study): induce weight loss
